From patent publication US20120309705A1, “NOVEL 3'-DEOXY-3'-METHYLIDENE-BETA-L-NUCLEOSIDES” (priority 2009, published 2012)

Columns and labels:
[1] = Cytotoxicity in MT-4 cells (MTS); type: cell-based; conditions: human
Method: MT-4 cells was added to 96-well microtiter plates in a volume of 50 μl (1×10^5 cells/mL). The cell medium contains the test compounds with the concentrations ranging 0.01 μM-31 μM. The cells were incubated at 37° C. with 5% CO2. At assay termination (6 days), 20-25 μL of MTS reagent is added per well and the microtiter plates are then incubated for 4-6 hrs at 37° C. with 5% CO2. The plate was read spectrophotometrically to assess cell viability. The cytotoxicity was calculated based on the cell viability in comparison with the control.

HBV = experiment: Anti-HBV activity in HepG2.2.15 cells (HBV DNA, TaqMan PCR); type: cell-based; conditions: Hepatitis B virus, 144 h, 6 days, HBV DNA in supernatant, read-out: Anti-HBV activity IC50 (HepG 2215)
Method: Human hepatoma cells with HBV (HepG2.2.15 cells) were used for the analyzing compounds of the invention for their HBV inhibitory activities. HepG2.2.15 cells were plated in 96-well microtiter plates. Only the interior wells were utilized to reduce “edge effects” observed during cell culture; the exterior wells were filled with complete medium to help minimize sample evaporation. After 16-24 hours the confluent monolayer of HepG2.2.15 cells were washed and the medium was replaced with complete medium containing various concentrations of a test compound in triplicate (compounds tested at 6 concentrations). Lamivudine was used as the positive control, while media alone was added to cells as a negative control. Three days later the culture medium was replaced with fresh medium containing the appropriately diluted drug. Six days following the initial administration of the test compound, the cell culture supernatant was collected, treated with pronase and then used in a real-time quantitative TaqMan PCR assay. The PCR-amplified HBV DNA was detected in real-time by monitoring increases in fluorescence signals that result from the exonucleolytic degradation of a quenched fluorescent probe molecule that hybridized to the amplified HBV DNA. For each PCR amplification, a standard curve was simultaneously generated using dilutions of purified HBV DNA. Anti-HBV activity was calculated from the reduction in HBV DNA levels. CellTiter-96 kit (Promega) is employed to measure cell viability in the same assay to confirm that the inhibition was not due to cytotoxicity in HepG 2 cells.

[2] = Cytotoxicity in HepG2 cells (MTT); type: cell-based; conditions: human
Method: HepG2 cells were seeded on 96-well plates at a density of 1×10^4 cells/well in 100 μl DMEM supplemented with 10% FBS, 100 U/ml penicillin/streptomycin and 2 mM L-glutamine. After 20 hours of incubation at 37° C. with 5% CO2, the medium was removed and replaced with fresh medium containing test compounds with the concentrations ranging 4.7-300 μM. The cells were incubated for 24 hours at 37° C. with 5% CO2. The medium was removed and replaced with 100 μl/well MTT (Sigma) in HBSS (0.5 mg/ml). After the incubation for 2 hours on gentle shake at 37° C., 100 μl/well of MTT lysis buffer was added to the wells and plates were covered and left over night to dissolve formazan crystals. Absorbance was measured at 570-630 nm in ELISA reader. The cytotoxicity was calculated based on the cell viability in comparison with the control.

HIV-1IIIB = experiment: Anti-HIV activity in MT-4 cells (cytopathic effect reduction); type: cell-based; conditions: Human immunodeficiency virus 1, MT4, 144 h, 6 days post-infection
Method: MT-4 cells were used for analyzing compounds of the invention for their HIV inhibitory activities. On the day preceding the assay, the cells were split 1:2 to assure they were in an exponential growth phase at the time of infection. Total cell number and percent viability determinations were performed using a hemacytometer and trypan blue exclusion. Cell viability must be greater than 95% for the cells to be utilized in the assay. The cells were re-suspended at 1×10^5 cells/mL in tissue culture medium and added to control or drug-containing 96-well microtiter plates in a volume of 50 μL. The viruses used for this assay were HIV-1IIIB. For each assay, a pre-titered aliquot of virus was removed from the freezer (−80° C.) and allowed to thaw slowly to room temperature in a biological safety cabinet. The virus was re-suspended and diluted into tissue culture medium such that the amount of virus added to each well in a volume of 50 μL was the amount determined to give between 85 to 95% cell killing at 6 days post-infection. The multiplicity of infection of these assays was approximately 0.01 and the volume added to the well of the microtiter plates was 50 μL. At assay termination (6 days post-infection), 20-25 μL of MTS reagent 3-(4,5-dimethylthiazol-2-yl)-5-(3-carboxymethoxyphenyl)-2-(4-sulfophenyl)-2H-tetrazolium (MTS; CellTiter 96 Reagent, Promega) was added per well and the microtiter plates were incubated for 4-6 hrs at 37° C., 5% CO2. Adhesive plate sealers were used in place of the lids, the sealed plate is inverted several times to mix the soluble formazan product. The plate was read spectrophotometrically at 490/650 nm with plate reader. Anti-HIV activity was calculated based on the Cytopathic Effect Reduction (%).

[3] = target: rtN236T in HBV polymerase (Hepatitis B virus genotype D subtype ayw, UniProt P03156, N571T); conditions: cited from earlier work
mutation rtA181V = mutation rtA181V (Hepatitis B virus genotype D subtype ayw, UniProt P03156, A516V); conditions: cited from earlier work
[4] = tested on: mutants resistant to lamivudine; conditions: cited from earlier work

rtN236T in HBV polymerase, sequence (P03156 whole entry N571T): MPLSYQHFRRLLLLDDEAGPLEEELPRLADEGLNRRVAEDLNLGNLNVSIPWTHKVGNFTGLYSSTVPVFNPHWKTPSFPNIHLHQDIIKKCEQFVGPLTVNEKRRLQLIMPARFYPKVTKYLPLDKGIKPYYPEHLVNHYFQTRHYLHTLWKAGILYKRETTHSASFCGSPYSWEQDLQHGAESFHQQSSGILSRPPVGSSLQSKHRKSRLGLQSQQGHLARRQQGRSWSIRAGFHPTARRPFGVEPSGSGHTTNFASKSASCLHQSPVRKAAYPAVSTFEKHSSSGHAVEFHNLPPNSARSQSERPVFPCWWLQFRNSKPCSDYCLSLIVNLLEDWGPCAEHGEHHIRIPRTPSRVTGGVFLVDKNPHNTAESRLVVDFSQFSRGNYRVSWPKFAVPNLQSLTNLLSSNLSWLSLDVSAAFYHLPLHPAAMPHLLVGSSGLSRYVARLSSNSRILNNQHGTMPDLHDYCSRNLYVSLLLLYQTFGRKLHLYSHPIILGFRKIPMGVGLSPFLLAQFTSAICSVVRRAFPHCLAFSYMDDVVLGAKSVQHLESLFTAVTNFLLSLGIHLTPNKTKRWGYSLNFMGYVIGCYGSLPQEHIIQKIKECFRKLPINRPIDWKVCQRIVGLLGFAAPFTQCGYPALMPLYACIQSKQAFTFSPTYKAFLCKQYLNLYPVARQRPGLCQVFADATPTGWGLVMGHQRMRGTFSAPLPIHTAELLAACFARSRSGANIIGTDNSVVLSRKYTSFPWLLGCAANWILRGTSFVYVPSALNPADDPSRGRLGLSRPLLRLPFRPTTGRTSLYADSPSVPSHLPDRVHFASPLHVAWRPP
mutation rtA181V, sequence (P03156 whole entry A516V): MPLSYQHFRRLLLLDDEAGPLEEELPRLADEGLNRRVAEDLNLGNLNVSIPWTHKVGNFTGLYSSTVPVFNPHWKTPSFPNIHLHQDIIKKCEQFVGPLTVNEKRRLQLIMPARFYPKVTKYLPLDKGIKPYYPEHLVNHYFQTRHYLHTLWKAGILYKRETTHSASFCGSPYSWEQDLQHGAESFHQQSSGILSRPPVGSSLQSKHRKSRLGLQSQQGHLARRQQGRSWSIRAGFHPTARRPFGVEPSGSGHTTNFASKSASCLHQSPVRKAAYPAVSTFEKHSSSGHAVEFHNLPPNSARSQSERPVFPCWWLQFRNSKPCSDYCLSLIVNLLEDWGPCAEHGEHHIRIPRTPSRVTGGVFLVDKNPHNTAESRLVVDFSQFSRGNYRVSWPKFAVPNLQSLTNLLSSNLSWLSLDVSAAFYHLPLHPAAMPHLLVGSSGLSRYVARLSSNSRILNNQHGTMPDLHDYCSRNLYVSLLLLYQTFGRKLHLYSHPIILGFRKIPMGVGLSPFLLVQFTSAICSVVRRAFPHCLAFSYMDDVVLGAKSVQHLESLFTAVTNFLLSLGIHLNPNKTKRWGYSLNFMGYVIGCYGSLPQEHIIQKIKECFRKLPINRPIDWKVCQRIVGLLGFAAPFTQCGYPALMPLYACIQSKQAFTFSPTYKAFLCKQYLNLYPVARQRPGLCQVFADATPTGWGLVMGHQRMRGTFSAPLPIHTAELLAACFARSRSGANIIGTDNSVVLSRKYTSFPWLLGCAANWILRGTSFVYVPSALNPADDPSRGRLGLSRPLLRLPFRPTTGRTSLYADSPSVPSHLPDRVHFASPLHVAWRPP

| SMILES | CC50 at 6 days [1] [µM] | IC50 (HBV) [µM] | CC50 at 24 h [2] [µM] | IC50 (HIV-1IIIB) [µM] | loss of susceptibility [3] | activity loss (mutation rtA181V) | cross-resistance of lamivudine-resistant mutants [4] |
| --- | --- | --- | --- | --- | --- | --- | --- |
| C=C1C[C@@H](n2ccc(=O)[nH]c2=O)O[C@H]1CO [Compound 8, 1-(2,3-dideoxyl-3-methylidene-β-L-pentofuranosyl)uracil] | > 32 | > 32 | > 32 | > 32 |  |  |  |
| C=C1C[C@@H](n2ccc(N)nc2=O)O[C@H]1CO [Compound 10, 1-(2,3-dideoxyl-3-methylidene-β-L-pentofuranosyl)cytosine] | > 32 | < 1 | > 300 | 1 to 32 |  |  |  |
| C=C1[C@H](CO)O[C@H](n2ccc(N)nc2=O)[C@H]1O [Compound 17, 1-(3-deoxy-3-methylidene-β-L-pentoribofuranosyl)cytosine] | > 32 |  | > 300 | > 32 |  |  |  |
| C=C1C[C@@H](n2cc(C)c(=O)[nH]c2=O)O[C@H]1CO [Compound 26, 1-(2,3-dideoxy-3-methylidene-β-L-pentofuranosyl)thymine] | > 32 | < 1 | > 300 | > 32 |  |  |  |
| C=C1[C@H](CO)O[C@H](n2ccc(N)nc2=O)[C@@H]1O [Compound 28, 1-(3-deoxy-3-methylidene-β-L-arabinopentofuranosyl)cytosine] | > 32 |  | > 300 | > 32 |  |  |  |
| C=C1[C@H](CO)O[C@H](n2ccc(N)nc2=O)[C@H]1F [Compound 37, 1-[2-deoxy-2-(S)-fluoro-3-deoxy-3-methylidene-β-L-pentofuranosyl]cytosine] | > 32 |  | > 300 | > 32 |  |  |  |
| C=C1[C@H](CO)O[C@H](n2ccc(N)nc2=O)[C@@H]1F [Compound 47, 1-[2-deoxy-2-(R)-fluoro-3-deoxy-3-methylidene-β-L-pentofuranosyl]cytosine] | > 32 |  | > 300 | > 32 |  |  |  |
| C=C1[C@H](CO)O[C@H](n2ccc(N)nc2=O)[C@H]1C [Compound 57, 4-Amino-1-[(2S,3S,5R)-5-(hydroxymethyl)-3-methyl-4-methylenetetrahydrofuran-2-yl]pyrimidin-2(1H)-one] |  |  | > 300 |  |  |  |  |
| C=C1C[C@@H](n2cc(F)c(N)nc2=O)O[C@H]1CO [Compound 66, 1-(2,3-dideoxyl-3-methylidene-β-L-pentofuranosyl)-5-fluorocytosine] |  | < 1 | > 300 |  |  |  |  |
| C=C1C[C@@H](n2cnc3c(N)ncnc32)O[C@H]1CO [Compound 71, 9-(2,3-dideoxyl-3-methylidene-β-L-pentofuranosyl)adenine] |  | < 1 | > 300 |  |  |  |  |
| C=C1C[C@@H](n2cnc3c(=O)[nH]c(N)nc32)O[C@H]1CO [Compound 75, 9-(2,3-dideoxyl-3-methylidene-β-L-pentofuranosyl)guanine] | > 32 |  |  | > 32 |  |  |  |
| Nc1ncnc2c1ncn2CCOCP(=O)(O)O [adefovir] |  |  |  |  | about 10 fold | about 33 fold |  |
| C=C1[C@H](CO)[C@@H](O)C[C@@H]1n1cnc2c(=O)[nH]c(N)nc21 [entecavir] |  |  |  |  |  |  | cross-resistance |
| Cc1cn([C@@H]2C[C@@H](O)[C@H](CO)O2)c(=O)[nH]c1=O [telbivudine] |  |  |  |  |  |  | cross-resistance |
